Key:
[1] = target: Replicase polyprotein 1ab (Severe acute respiratory syndrome coronavirus 2, UniProt P0DTD1); test: Inhibition of full length N-terminal his6-tagged SARS-CoV-2 3CL protease using FAM-SAVLQ as substrate preincubated with compound for 30 mins followed by substrate addition and measured after 30 mins by FRET assay
[2] = Cytotoxicity against cat CRFK cells incubated for 72 hrs by CytoTox 96 analysis; assay type: toxicity, cell-based, Felis catus
[3] = test system: SARS-CoV-2; test: Antiviral activity against SARS CoV-2 Wuhan-Hu-1 infected in HEK293T cells incubated for 24 hrs; assay type: functional, organism-based; settings: Severe acute respiratory syndrome coronavirus 2, Wuhan-Hu-1, HEK-293T
[4] = Inhibition of MERS-CoV 3CLpro using SG-QXL520 as substrate preincubated with compound for 30 mins followed by susbtrate addition and measured after 30 mins by FRET assay; set-up: species or system Middle East respiratory syndrome-related coronavirus

CC(C)C[C@H](NC(=O)OC[C@@H]1CCC(=O)N1Cc1ccc2c(c1)OC(F)(F)O2)C(=O)N[C@@H](C[C@@H]1CCNC1=O)C(O)S(=O)(=O)O (stereo not given in full)
IC50 [1]: 320 nM
CC50 at 72 h [2]: > 50000 nM
EC50 [3]: 450 nM
IC50 [4]: 50 nM

CC(C)C[C@H](NC(=O)OCC1CC(=O)N(CC2CC3CCC2C3)C1)C(=O)N[C@H](C=O)C[C@@H]1CCNC1=O (stereo not given in full)
IC50 [1]: 160 nM
CC50 at 72 h [2]: > 50000 nM
EC50 [3]: 120 nM
IC50 [4]: 60 nM

CC(C)C[C@H](NC(=O)OC[C@@H]1CCC(=O)N1Cc1ccc2c(c1)OC(F)(F)O2)C(=O)N[C@H](C=O)C[C@@H]1CCNC1=O
IC50 [1]: 270 nM
CC50 at 72 h [2]: > 50000 nM
EC50 [3]: 510 nM
IC50 [4]: 50 nM

CC(C)C[C@H](NC(=O)OC[C@@H]1CCC(=O)N1Cc1cccc(F)c1)C(=O)N[C@H](C=O)C[C@@H]1CCNC1=O
IC50 [1]: 110 nM
CC50 at 72 h [2]: > 50000 nM
EC50 [3]: 50 nM
IC50 [4]: 430 nM

CC(C)C[C@H](NC(=O)OCC1CCN(CC2CCCCC2)C1=O)C(=O)N[C@@H](C[C@@H]1CCNC1=O)C(O)S(=O)(=O)O (stereo not given in full)
IC50 [1]: 220 nM
CC50 at 72 h [2]: > 50000 nM
EC50 [3]: 20 nM
IC50 [4]: 170 nM
